Test results taken from patent US10870647B2, “Imidazopyridine derivative, method for preparing same, and pharmaceutical composition containing same as active ingredient for preventing or treating cancer” (DAEGU-GYEONGBUK MEDICAL INNOVATION FOUNDATION, priority 2016, dated 2020).

Columns and labels:
Assay in all cases: Kinase selectivity, scanMAX Kinase assay panel (DiscoverX), % control at 1 uM
Type in all cases: binding
[1] = target: T1, scanMAX Kinase assay panel (Homo sapiens, UniProt P54760); conditions: EPHB4; 1 uM; read-out: Percent Control (%)
T1 construct: purchased DiscoverX
T1 sequence (P54760 16-987): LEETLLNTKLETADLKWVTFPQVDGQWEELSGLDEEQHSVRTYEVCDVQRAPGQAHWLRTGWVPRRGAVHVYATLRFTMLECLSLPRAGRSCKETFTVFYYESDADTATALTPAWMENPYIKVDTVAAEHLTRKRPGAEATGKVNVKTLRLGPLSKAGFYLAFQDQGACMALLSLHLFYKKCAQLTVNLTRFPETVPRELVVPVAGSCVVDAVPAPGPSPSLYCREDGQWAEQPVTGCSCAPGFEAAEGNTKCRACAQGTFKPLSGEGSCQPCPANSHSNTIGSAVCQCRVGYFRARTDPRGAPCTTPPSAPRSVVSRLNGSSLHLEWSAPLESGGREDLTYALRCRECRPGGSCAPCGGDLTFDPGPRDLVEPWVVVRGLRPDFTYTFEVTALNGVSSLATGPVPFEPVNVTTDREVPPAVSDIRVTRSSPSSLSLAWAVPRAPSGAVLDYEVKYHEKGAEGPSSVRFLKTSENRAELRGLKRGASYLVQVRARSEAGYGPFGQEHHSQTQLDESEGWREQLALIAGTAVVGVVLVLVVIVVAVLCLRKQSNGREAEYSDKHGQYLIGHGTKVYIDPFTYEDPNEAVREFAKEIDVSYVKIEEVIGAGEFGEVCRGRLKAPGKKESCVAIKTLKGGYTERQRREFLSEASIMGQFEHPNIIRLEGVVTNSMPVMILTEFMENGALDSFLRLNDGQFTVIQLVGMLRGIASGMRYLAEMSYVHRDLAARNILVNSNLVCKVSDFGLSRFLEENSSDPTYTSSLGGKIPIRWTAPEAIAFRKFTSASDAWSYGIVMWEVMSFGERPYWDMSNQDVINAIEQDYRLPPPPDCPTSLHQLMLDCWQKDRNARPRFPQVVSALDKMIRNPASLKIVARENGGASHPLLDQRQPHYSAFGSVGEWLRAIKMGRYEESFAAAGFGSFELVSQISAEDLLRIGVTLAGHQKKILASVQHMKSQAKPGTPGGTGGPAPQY
Method in brief: (§1)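 Read-out is percent of control, derived from the signal with compound relative to positive and negative controls: (compound − positive)/(negative − positive) × 100. Each enzyme received test drug at 1 uM in DMSO, and values under 35% count as active.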

[2] = target: T2, scanMAX Kinase assay panel (Homo sapiens, UniProt P25098); conditions: GRK2; 1 uM; read-out: Percent Control (%)
T2 construct: purchased DiscoverX
T2 sequence (P25098 1-689): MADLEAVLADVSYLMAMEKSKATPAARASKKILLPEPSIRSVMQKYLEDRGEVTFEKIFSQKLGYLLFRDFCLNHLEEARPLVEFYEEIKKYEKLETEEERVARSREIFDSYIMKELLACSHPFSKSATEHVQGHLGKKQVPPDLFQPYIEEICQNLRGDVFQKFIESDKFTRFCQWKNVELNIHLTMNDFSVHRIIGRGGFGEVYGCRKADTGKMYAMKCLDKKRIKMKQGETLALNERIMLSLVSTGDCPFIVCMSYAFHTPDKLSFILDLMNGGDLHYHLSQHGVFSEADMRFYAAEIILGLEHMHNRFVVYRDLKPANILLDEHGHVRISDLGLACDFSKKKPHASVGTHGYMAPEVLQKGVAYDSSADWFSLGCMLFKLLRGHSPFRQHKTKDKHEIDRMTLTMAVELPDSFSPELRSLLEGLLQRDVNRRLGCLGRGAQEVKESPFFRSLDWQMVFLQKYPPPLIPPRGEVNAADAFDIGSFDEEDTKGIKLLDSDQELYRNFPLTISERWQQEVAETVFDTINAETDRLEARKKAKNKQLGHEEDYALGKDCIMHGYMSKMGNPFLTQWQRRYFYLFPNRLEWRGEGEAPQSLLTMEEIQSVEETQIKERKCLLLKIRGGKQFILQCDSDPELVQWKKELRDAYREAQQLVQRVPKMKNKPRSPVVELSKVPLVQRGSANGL
Method in brief: as §1

[3] = target: T3, scanMAX Kinase assay panel (Homo sapiens, UniProt O15146); conditions: MUSK; 1 uM; read-out: Percent Control (%)
T3 construct: purchased DiscoverX
T3 sequence (O15146 24-869): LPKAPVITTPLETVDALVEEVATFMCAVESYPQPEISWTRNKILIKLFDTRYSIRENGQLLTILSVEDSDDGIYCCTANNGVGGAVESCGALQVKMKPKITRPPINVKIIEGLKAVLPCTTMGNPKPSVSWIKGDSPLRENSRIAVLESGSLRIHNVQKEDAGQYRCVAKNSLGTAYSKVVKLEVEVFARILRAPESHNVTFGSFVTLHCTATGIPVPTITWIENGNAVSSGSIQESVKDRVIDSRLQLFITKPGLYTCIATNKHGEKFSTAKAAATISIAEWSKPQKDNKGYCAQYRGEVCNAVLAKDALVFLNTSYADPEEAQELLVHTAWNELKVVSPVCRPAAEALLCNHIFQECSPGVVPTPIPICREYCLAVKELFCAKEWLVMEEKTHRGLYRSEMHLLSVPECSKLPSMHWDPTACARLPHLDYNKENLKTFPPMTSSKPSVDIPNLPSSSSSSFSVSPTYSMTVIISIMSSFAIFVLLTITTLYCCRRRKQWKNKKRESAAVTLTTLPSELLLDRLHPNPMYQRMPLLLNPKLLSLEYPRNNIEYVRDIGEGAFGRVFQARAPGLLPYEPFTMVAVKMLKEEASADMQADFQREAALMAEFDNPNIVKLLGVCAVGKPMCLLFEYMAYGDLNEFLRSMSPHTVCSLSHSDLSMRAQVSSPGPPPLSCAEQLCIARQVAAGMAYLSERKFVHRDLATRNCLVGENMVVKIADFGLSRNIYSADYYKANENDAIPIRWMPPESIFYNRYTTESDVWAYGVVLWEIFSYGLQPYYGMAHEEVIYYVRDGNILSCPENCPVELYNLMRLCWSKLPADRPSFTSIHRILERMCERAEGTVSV
Method in brief: as §1

| Compound | remaining binding at 1 µM [1] [%] | remaining binding at 1 µM [2] [%] | remaining binding at 1 µM [3] [%] |
| --- | --- | --- | --- |
| Cc1ccc(NC(=O)C2(C(=O)Nc3ccc(F)cc3)CC2)cc1C#Cc1cnc2c(Nc3cnn(C(C)C)c3)cccn12 [Example 78] | 100 | 96 | 63 |
| Cc1cn(-c2cc(NC(=O)c3ccc(C)c(C#Cc4cnc5c(Nc6cnn(C)c6)cccn45)c3)cc(C(F)(F)F)c2)cn1 [Example 12, 4-methyl-N-(3-(4-methyl-1H-imidazol-1-yl)-5-(trifluoromethyl)phenyl)-3-((8-((1-methyl-1H-pyrazol-4-yl)amino)imidazo[1,2-a]pyridin-3-yl)ethynyl)benzamide] | 41 | 100 | 21 |
| Cc1ccc(C(=O)Nc2ccc(CN3CCN(C)CC3)c(C(F)(F)F)c2)cc1C#Cc1cnc2c(Nc3cnn(C)c3)cccn12 [Example 1, 4-methyl-3-((8-((1-methyl-1H-pyrazol-4-yl)amino)imidazo[1,2-a]pyridin-3-yl)ethynyl)-N-(4-((4-methylpiperazin-1-yl)methyl)-3-(trifluoromethyl)phenyl)benzamide] | 3 | 84 | 1 |
